Experimental data published in ChEMBL document CHEMBL4000254, “Sodium Channel Blockers” (ACS Med Chem Lett, 2017).

Target: Sodium channel protein type 9 subunit alpha (Homo sapiens, UniProt Q15858)
Test: Inhibition of human Nav1.7 expressed in HEK293 cells assessed as inhibition of peak current after 50 secs by automated patch clamp assay
Assay type: cell-based

Chain of Sodium channel protein type 9 subunit alpha (Q15858 whole entry): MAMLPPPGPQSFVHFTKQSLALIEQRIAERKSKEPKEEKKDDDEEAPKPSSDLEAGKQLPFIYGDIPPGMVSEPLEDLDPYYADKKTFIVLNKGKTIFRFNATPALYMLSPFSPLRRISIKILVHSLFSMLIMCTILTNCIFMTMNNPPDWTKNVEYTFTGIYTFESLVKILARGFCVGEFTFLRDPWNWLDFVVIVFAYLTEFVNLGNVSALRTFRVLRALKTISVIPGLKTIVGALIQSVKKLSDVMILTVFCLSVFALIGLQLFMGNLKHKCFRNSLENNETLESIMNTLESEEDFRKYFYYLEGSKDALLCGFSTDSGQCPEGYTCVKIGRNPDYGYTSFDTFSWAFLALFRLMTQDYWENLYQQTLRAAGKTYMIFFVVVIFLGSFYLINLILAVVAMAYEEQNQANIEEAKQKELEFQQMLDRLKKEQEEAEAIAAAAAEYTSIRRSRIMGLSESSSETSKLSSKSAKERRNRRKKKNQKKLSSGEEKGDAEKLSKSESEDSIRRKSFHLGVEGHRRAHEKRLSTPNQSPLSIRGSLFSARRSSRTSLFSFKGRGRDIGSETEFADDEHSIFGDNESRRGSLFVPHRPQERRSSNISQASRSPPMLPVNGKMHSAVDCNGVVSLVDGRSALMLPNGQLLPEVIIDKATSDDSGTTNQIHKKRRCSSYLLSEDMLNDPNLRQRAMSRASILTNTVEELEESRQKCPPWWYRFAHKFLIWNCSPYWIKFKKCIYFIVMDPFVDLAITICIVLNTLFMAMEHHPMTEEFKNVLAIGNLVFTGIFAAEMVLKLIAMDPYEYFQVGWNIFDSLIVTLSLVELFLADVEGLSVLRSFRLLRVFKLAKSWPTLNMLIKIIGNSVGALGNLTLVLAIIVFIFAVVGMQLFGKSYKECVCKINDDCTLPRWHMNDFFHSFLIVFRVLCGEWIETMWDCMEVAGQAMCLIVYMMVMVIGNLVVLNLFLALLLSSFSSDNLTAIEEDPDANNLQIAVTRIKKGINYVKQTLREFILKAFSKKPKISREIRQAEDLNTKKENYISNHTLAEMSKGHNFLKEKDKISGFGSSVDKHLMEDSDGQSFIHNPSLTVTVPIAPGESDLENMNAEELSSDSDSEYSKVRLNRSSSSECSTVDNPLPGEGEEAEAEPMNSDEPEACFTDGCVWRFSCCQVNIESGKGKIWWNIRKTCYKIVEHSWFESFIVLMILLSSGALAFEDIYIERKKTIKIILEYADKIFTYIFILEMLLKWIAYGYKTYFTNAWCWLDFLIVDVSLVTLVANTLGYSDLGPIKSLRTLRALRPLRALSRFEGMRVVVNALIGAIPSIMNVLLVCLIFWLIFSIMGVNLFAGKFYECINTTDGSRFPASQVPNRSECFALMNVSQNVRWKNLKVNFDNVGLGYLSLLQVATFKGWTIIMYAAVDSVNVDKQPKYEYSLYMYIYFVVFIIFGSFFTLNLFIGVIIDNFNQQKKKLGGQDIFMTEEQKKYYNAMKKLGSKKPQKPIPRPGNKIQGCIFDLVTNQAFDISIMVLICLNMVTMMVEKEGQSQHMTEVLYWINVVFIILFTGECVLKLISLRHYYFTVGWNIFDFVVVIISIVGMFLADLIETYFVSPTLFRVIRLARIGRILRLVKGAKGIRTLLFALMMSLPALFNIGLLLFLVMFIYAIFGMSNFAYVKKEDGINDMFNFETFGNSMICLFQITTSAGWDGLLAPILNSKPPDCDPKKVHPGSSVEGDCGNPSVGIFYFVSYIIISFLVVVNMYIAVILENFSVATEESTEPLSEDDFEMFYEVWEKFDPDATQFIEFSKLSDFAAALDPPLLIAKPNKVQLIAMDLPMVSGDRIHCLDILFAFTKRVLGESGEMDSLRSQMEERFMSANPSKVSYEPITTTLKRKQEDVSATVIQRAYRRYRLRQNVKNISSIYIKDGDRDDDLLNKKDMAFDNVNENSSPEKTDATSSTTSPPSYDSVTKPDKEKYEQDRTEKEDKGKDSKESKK

SMILES	IC50 [µM]
CS(=O)(=O)NC(=O)c1cc(Cl)c(-n2nc(Cl)c3cc(-c4cc(F)c(F)c(F)c4)ccc32)cc1F	0.02
CS(=O)(=O)NC(=O)c1cc(Cl)c(-n2ncc3cc(-c4cccc(Cl)c4)ccc32)cc1F	0.07
Cc1cc(F)ccc1-c1cnc2c(c1)c(Cl)cn2-c1cc(F)c(C(=O)NS(C)(=O)=O)cc1Cl	0.09
CS(=O)(=O)NC(=O)c1cc(Cl)c(-n2cc(Cl)c3cc(-c4ccc(C(F)(F)F)cc4)cnc32)cc1F	0.05
CS(=O)(=O)NC(=O)c1cc(Cl)c(-n2nc(Cl)c3cc(-c4cccc(Cl)c4F)ccc32)cc1F	0.07
CS(=O)(=O)NC(=O)c1cc(Cl)c(-n2cc(F)c3cc(-c4cccc(Cl)c4F)cnc32)cc1F	0.04
Cc1cccc(-c2ccc3c(c2)c(Cl)nn3-c2cc(F)c(C(=O)NS(C)(=O)=O)cc2Cl)c1	0.039
CS(=O)(=O)NC(=O)c1cc(Cl)c(-n2nc(Cl)c3cc(-c4ccc(OC(F)(F)F)cc4)ccc32)cc1F	0.08
CS(=O)(=O)NC(=O)c1cc(Cl)c(-n2nc(Cl)c3cc(-c4ccc(Cl)c(F)c4)ccc32)cc1F	0.08
CS(=O)(=O)NC(=O)c1cc(Cl)c(-n2nc(Cl)c3cc(-c4cc(F)ccc4F)ccc32)cc1F	0.09

More lines, in order of falling IC50, values ahead:

IC50 [µM]	SMILES
0.09	CS(=O)(=O)NC(=O)c1cc(Cl)c(-n2nc(F)c3cc(-c4cccc(F)c4)ccc32)cc1F
0.08	Cc1cccc(-c2ccc3c(c2)c(F)nn3-c2cc(F)c(C(=O)NS(C)(=O)=O)cc2Cl)c1
0.08	CS(=O)(=O)NC(=O)c1cc(Cl)c(-n2cc(Cl)c3cc(-c4ccc(F)cc4F)cnc32)cc1F
0.08	COc1cccc(-c2ccc3c(c2)c(F)nn3-c2cc(F)c(C(=O)NS(C)(=O)=O)cc2Cl)c1
0.07	CS(=O)(=O)NC(=O)c1cc(Cl)c(-n2ncc3cc(-c4ccc(Cl)cc4F)ccc32)cc1F
0.06	Cc1ccccc1-c1ccc2c(c1)c(F)nn2-c1cc(F)c(C(=O)NS(C)(=O)=O)cc1Cl
0.05	CS(=O)(=O)NC(=O)c1cc(Cl)c(-n2cc(F)c3cc(-c4cccc(Cl)c4)cnc32)cc1F
0.05	CS(=O)(=O)NC(=O)c1cc(Cl)c(-n2cc(F)c3cc(-c4ccc(C(F)(F)F)cc4)cnc32)cc1F
0.04	CS(=O)(=O)NC(=O)c1cc(Cl)c(-n2nc(F)c3cc(-c4cccc(Cl)c4)ccc32)cc1F
0.04	CS(=O)(=O)NC(=O)c1cc(Cl)c(-n2cc(Cl)c3cc(-c4ccc(F)cc4Cl)cnc32)cc1F
0.0076	CS(=O)(=O)NC(=O)c1cc(Cl)c(-n2nc(Cl)c3cc(OCc4ccc5ccccc5c4)ccc32)cc1F
